Results taken from patent US6586369B1, “Fungicidal agents containing pyrrolidones as their active agents and use thereof for treating plants” (BASF Aktiengesellschaft, priority 2000, dated 2003).

Legend:
[1] = tested on: harmful fungi; assay: Fungicidal activity, general statement, no test named; conditions: no test conditions given

Q: For `O=C1C(Cl)=C(c2ccccc2)C(=O)N1Nc1ccccc1` [No. 1, 1-Anilino-3-chloro-4-phenylpyrrol-2,5-dione], which “fungicidal activity (in words)” value [1] is on record?
A: excellent fungicidal activity

Q: What about the melting point of the same compound?
A: 143 to 145 °C

Q: For `O=C1C(Br)=C(c2ccccc2)C(=O)N1Nc1ccccc1` [No. 486, 1-Anilino-3-bromo-4-phenylpyrrol-2,5-dione], which melting point is on record?
A: 148 to 149 °C

Q: For `C[S+]([O-])C1=C(c2ccccc2)C(=O)N(Nc2ccccc2)C1=O` (stereo not shown) [No. 1042, 1-Anilino-3-methylsulfinyl-4-phenylpyrrol-2,5-dione], which melting point is on record?
A: 178 to 180 °C
